Source: US20130189351A1, “LIPIDS SUITABLE FOR LIPOSOMAL DELIVERY OF PROTEIN CODING RNA” (priority 2010, published 2013)

Test: physchem
Protocol: The pKa of a lipid is the pH at which 50% of the lipids are charged, lying halfway between the point where the lipids are completely charged and the point where the lipids are completely uncharged.
The pKa of a lipid is measured in water at standard temperature and pressure using the following technique: • 2 mM solution of lipid in ethanol is prepared by weighing the lipid and dissolving in ethanol. 0.3 mM solution of fluorescent probe toluene nitrosulphonic acid (TNS) in ethanol:methanol 9:1 is prepared by first making 3 mM solution of TNS in methanol and then diluting to 0.3 mM with ethanol. • An aqueous buffer containing sodium phosphate, sodium citrate sodium acetate and sodium chloride, at the concentrations 20 mM, 25 mM, 20 mM and 150 mM, respectively, is prepared. The buffer is split into eight parts and the pH adjusted either with 12N HCl or 6N NaOH to 4.44-4.52, 5.27, 6.15-6.21, 6.57, 7.10-7.20, 7.72-7.80, 8.27-8.33 and 10.47-11.12. 400 uL of 2 mM lipid solution and 800 uL of 0.3 mM TNS solution are mixed. • 7.5 μL of probe/lipid mix are added to 242.5 μL of buffer in a 1 mL 96 well plate. This is done with all eight buffers. […]

Row | SMILES | pKa
1 | CCCCC/C=C\C/C=C\CCCCCCCCOCC(CN1CCC(C)(C)C1)OCCOCCO[C@H]1CC[C@@]2(C)C(=CC[C@H]3[C@@H]4CC[C@H]([C@H](C)CCCC(C)C)[C@@]4(C)CC[C@@H]32)C1 (some centres unmarked) [RV05] | 5.85
2 | CCCCC/C=C\C/C=C\CCCCCCCCOCC(CN1CCCC1C)OCCOCCOCCNC(=O)CCC(=O)O[C@H]1CC[C@@]2(C)C(=CC[C@H]3[C@@H]4CC[C@H]([C@H](C)CCCC(C)C)[C@@]4(C)CC[C@@H]32)C1 (some centres unmarked) [RV10] | 7.86
